Patent publication US20130071535A1, “FOOD AND FLAVORANT COMPOSITIONS COMPRISING RENEWABLY-BASED, BIODEGRADABLE 1,3-PROPANEDIOL” (DuPont Tate & Lyle Bio Products Company, LLC, priority 2006, published 2013)

Experiments:
Viscosity of formulation = type: physicochemical; conditions: cosmetic emulsion of Example 1 with other glycol instead of Bio-PDO
human skin [1] = assay: Human skin patch test (first); type: in vivo; conditions: approximately 100 subjects; 5, 25, and 50% PDO
Source text: (§1) Based on these studies PDO is not expected to be a skin irritant or sensitizer in humans.

human skin [2] = assay: Second human skin patch test; type: in vivo
Source text: as §1

CC(O)CCO (stereo not drawn) [1,3-butylene glycol]
viscosity of the cosmetic emulsion with the comparison glycol (Viscosity of formulation): 6000 cps

CC(CO)CO [2-methyl-1,3-propanediol]
viscosity of the cosmetic emulsion with the comparison glycol (Viscosity of formulation): 9600 cps

OCCCO [Bio-PDO, 1,3-propanediol]
skin reactions indicative of irritation or sensitization (human skin [1]): did not cause any skin reactions indicative of irritation or sensitization
clinically significant dermal irritation or sensitization reactions (human skin [2]; 25, 50, and 75% PDO at pH 7, or 75% PDO at pH 4 and 9): did not produce any clinically significant dermal irritation or sensitization reactions

CC(O)CO (stereo not drawn) [propylene glycol]
patch test irritation and cumulative irritation for human skin (human skin [2]; 25, 50, and 75% (pH 7)): patch test irritants and cumulative irritants
viscosity of the cosmetic emulsion with the comparison glycol (Viscosity of formulation): 12600 cps
